Consider 5 molecules from patent US5866787A, “Transgenic plants co-expressing a functional human 2-5A system” (Cleveland Clinic Foundation, priority 1995, dated 1999).

Test [1] has as its system 2-5A-dependent RNase. The following applies: cited from earlier work.
The subject of test [2] is 2-5A-dependent RNase. The following applies: depending on the cell type; cited from earlier work.
Test [3] concerns RNase L. The test is described as follows: 2-5A injection into detached leaves, 18S rRNA northern blot. Format: cell-based, transgenic tobacco. To be noted: about 2.5 μM injected, about 3 hrs; not in control or synthetase-only plants. The method, then:
FIG. 24. […] Leaves are injected with about 2.5 μM 2-5A, total RNA is extracted after 3 hr and probed with ^32 P-labeled 18S cDNA. Lanes 1-2, control plant, lanes 3 and 4, plant expressing only 2-5A synthetase (Syn); lane 5, plant expressing only RNase L (RL); lanes 6-7, plants expressing both 2-5A synthetase and RNase L (Syn+RL).
Functional expression of RNase L in transgenic tobacco plants is detected by 2-5A-induced breakdown of 18S ribosomal RNA (rRNA) in detached leaves that are injected with 2-5A. Transgenic leaves are injected with about 2.5 μM p3 A(2'p5'A)3 and are incubated for about 3 hrs before total RNA is prepared. […] In addition, plants expressing RNase L are believed to have specific 2-5A binding activity that is absent in control, non-transgenic plants.

For test [4], the system named is RNase L. The test is described as follows: 2-5A uptake by cut leaves, 18S rRNA northern blot. Format: cell-based, transgenic plant expressing human RNase L. The following applies: 1 μM taken up by cut leaves for seven hours; not in control plant. The method, then: FIG. 30 illustrates that RNase L in cut leaves is activated to cleave rRNA by incubation in a solution containing 2-5A. A northern blot probed with ^32 P-labeled cDNA to […] rRNA is shown. The cut leaves are from a control plant (lanes 1 and 2) or from a plant transgenic for human RNase L cDNA (lanes 3 and 4). The presence or absence of 2-5A and the position of the 2-5A-mediated rRNA cleavage products are shown.
Leaves from control and transgenic plants are cut and allowed to take up 2-5A [1 μM of p3 (A2'p)3 A] through the petiole for about seven hours at room temperature under fluorescent light. Total RNA is prepared and used to prepare northern blots. THe RNA in the blots is hybridized to a ^32 P labeled human 18S rRNA cDNA probe (the cDNA is provided by Dr. John Thaden, Baltimore).
To monitor uptake of 2-5A, leaves are cut at the base of the petiole and then placed in a solution of ^32 P-labeled 2-5A probe for about three hours at room temperature under light. The petiole was cut further and autoradiograms were made from the lamina. Uptake and translocation of the 2-5A probe is readily apparent through veins to all parts of lamina (data now shown). Catalytic activity of RNase L in the intact leaves is determined after allowing unlabeled 2-5A, p3 A(2'p5'A)3 (1 μM), to be taken up by cut leaves for seven hours. […]

Test [5] concerns recombinant human RNase L. As to the kind of experiment: 2-5A dependent ribonuclease L assay, poly(U) cleavage. The following applies: about 30° C. for about 2 hr. Format: biochemical. The method, then: FIG. 25. Transgenic plants produce functional, human recombinant 2-5A synthetase. Extracts of plants containing cDNA to both human RNase L and 2-5A synthetase (lanes 8-11), of control plants that are transformed with vector alone (lanes 12-15), and of interferon treated human HeLa cells (lanes 16 and 17) are assayed for 2-5A synthetase activity. 2-5A synthetase activity in extracts of transgenic plants is determined by a functional assay for 2-5A. […] The total cell lysates are centrifuged at about 10,000×g for about 10 min at about 4° C., the supernatants are collected and the protein concentration is determined as described in Bradford, M. et al.: Anal. Biochem., 72:248 (1976). […] 2-5A is monitored by its ability to activate RNase L, which are expressed and isolated from insect cells, Dong, B. et al.: J. Biol. Chem., 269:14153 (1994), to cleave poly (U) to discrete products (arrows). […]
To determine if 2-5A synthetase is present in the transgenic tobacco plants, functional assays for the enzyme are performed. 2-5A synthetase activity in extracts of transgenic plants is determined by a functional assay for 2-5A. […] The total cell lysates are centrifuged at about 10,000×g for about 10 min at about 4° C., the supernatants are collected and the protein concentration is determined. […]

Test [6] has as its system 32P-2-5A probe. The test is described as follows: 2-5A probe crosslinking to lysine to asparagine mutants, phosphorimager analysis. The format is binding. The following applies: uv crosslinking, phosphorimager analysis of dried gel.

Take `Nc1ncnc2c1ncn2[C@@H]1O[C@H](COP(=O)(O)OP(=O)(O)OP(=O)(O)O)[C@@H](O)[C@H]1O` [ATP]: the “stimulatory effect on 2-5A-dependent RNase activity” value in test [1] is reported as “two-fold”.
On to interferon, for which the “enhancement of levels of 2-5A-dependent RNase” value in test [2] was “two- to twenty-fold”.
Turning to p3 A(2'p5'A)3, in test [3], the “degradation of rRNA in plants expressing RNase L” value is on record as “degradation of rRNA”. The “degradation of 18S rRNA in RNase L expressing plants” value in test [4] is “induce degradation of the 18S rRNA to discrete cleavage products”.
pA(2'p5'A)3: the “activation of RNase L to cleave poly(U)” value in test [5] is given as “production of discrete poly (U) cleavage products”.

B1: ZB1(Lys^240,274 →Asn): clone ZB1 double mutant, lysines 240 and 274 mutated to asparagine (protein, UniProt Q05921 1-735, looked up, variant K240N K274N)
2-5A-dependent ribonuclease: METPDYNTPQGGTPSAGSQRTVVEDDSSLIKAVQKGDVVRVQQLLEKGADANACEDTWGWTPLHNAVQAGRVDIVNLLLSHGADPHRRKKNGATPFIIAGIQGDVKLLEILLSCGADVNECDENGFTAFMEAAERGNAEALRFLFAKGANVNLRRQTTKDKRRLKQGGATALMSAAEKGHLEVLRILLNDMKAEVDARDNMGRNALIRTLLNWDCENVEEITSILIQHGADVNVRGERGNTPLIAAVERKHTGLVQMLLSREGINIDARDNEGNTALLIAVDKQLKEIVQLLLEKGADKCDDLVWIARRNHDYHLVKLLLPYVANPDTDPPAGDWSPHSSRWGTALKSLHSMTRPMIGKLKIFIHDDYKIAGTSEGAVYLGIYDNREVAVKVFRENSPRGCKEVSCLRDCGDHSNLVAFYGREDDKGCLYVCVSLCEWTLEEFLRLPREEPVENGEDKFAHSILLSIFEGVQKLHLHGYSHQDLQPQNILIDSKKAVRLADFDQSIRWMGESQMVRRDLEDLGRLVLYVVMKGEIPFETLKTQNDEVLLTMSPDEETKDLIHCLFSPGENVKNCLVDLLGHPFFWTWENRYRTLRNVGNESDIKVRKCKSDLLRLLQHQTLEPPRSFDQWTSKIDKNVMDEMNHFYEKRKKNPYQDTVGDLLKFIRNIGEHINEEKKRGMKEILGDPSRYFQETFPDLVIYIYKKLKETEYRKHFPQPPPRLSVPEAVGPGGIQS
B1: the “2-5A binding activity, % of clone ZB1” value in test [6] is given as 12.2%.
